Consider three molecules from US20240238378A1, “METHODS AND CCK-B RECEPTOR AGONISTS FOR TREATING TINNITUS” (City University of Hong Kong, priority 2023, published 2024).

Data set [1] concerns auditory thalamocortical pathway. Briefly: HFS-induced thalamocortical LTP in CCK-KO mice with infusion into ACx (fEPSP slope). Type of data set: in vivo. To be noted: HT-267 5 μM, 0.5 μl into ACx, n=6, p<0.0001, FIG. 5C. The source says: The electrical stimulation is generated by an ISO-Flex isolator (A.M.P.I., Israel), which is controlled by a multifunction processor (RX6, TDT). The electrical current pulses for baseline test are 0.5 ms, 50-150 μA and presented every 10 s. The theta burst stimulation (TBS) contains four trails of 10 bursts at 5 Hz with the interval of 10 s between the trails, and each burst consists of 5 pulses at 100 Hz.
[…], two customized microelectrode arrays with four tungsten electrodes each, impedance: 0.5-1 MS2 (recording), and 200-500 kΩ (ES) (FHC, U.S.), are used for the auditory cortical neuronal activity recording and medial geniculate body ventral division (MGv) electrical stimulation and monitoring, respectively. […] 70 dB, 100 ms, noise bursts are presented every 10 s during the insertion of the electrode arrays, and neuronal activities are monitored as the electrode arrays are lowered until robust noise responses are achieved on both arrays. The final stimulating and recording positions are determined by maximizing the cortical field excitatory postsynaptic potential (fEPSP) amplitude triggered by the electrical stimulation in MGv.
The fEPSPs, which are elicited by 0.5 ms electrical current pulses, are amplified (×1000) and filtered (1 Hz-5 kHz), recorded with a 25 kHz sampling rate, and stored in a PC by OpenEx software (TDT). Before the recording, an input-output function is measured. […]

In data set [2] the test system is noise-induced tinnitus mice. Briefly: Tinnitus mouse model, gap pre-pulse inhibition of the acoustic startle reflex (GPIAS) with sound therapy. It is filed as in vivo. To be noted: 0.2 mg/kg intraperitoneal, one week (4 treatment days), combined with sound exposure; 12.6k, 16k, 20.1k, 28.7k Hz; FIGS. 6F-6I. On the procedure:
HT-267 is tested in the tinnitus mouse model. […] 7-9 weeks after tinnitus induction, more than 50% of mice developed tinnitus.
The inventors use the standard approach for assessing tinnitus in a rodent model, namely gap pre-pulse inhibition of the acoustic startle reflex (GPIAS) (FIGS. 2A-B). […] (Upper) Background sound and startle speakers are placed 10 and 13 cm respectively, from the point of microphone calibration. Signals from three force sensors placed under the testing tube in a triangular formation are averaged in a custom-made circuit and transmitted to TDT digital signal processor (DSP) for further analysis. (Lower) Timeline of a single GPIAS testing session. A GPIAS testing session consists of 3 blocks, lasting 36 minutes in total. The first block is the acclimation phase, lasting five minutes, where white noise is played from the “Cue” speaker for 5 minutes. Block two is the startle acclimation phase. To prevent outlier trials at the beginning of the testing session, 10 startle-only trials without any background sound are delivered to the animal. After block two, block three takes place, lasting 30 minutes. The 30 minute-long GPIAS session consisting of 300 individual trials (Five different background (BG) frequencies tested, for both GAP and NO_GAP conditions with 30 repeats for each BG frequency×GAP/NO_GAP condition pair). Each square represents one minute in the timeline. […]

A further data set concerns the target T1, CCKBR (Homo sapiens, UniProt P32239).
T1 construct: expressed in transfected cells; host or cells: CHO cells (CHO-CCKBR)
T1 sequence (P32239 1-447): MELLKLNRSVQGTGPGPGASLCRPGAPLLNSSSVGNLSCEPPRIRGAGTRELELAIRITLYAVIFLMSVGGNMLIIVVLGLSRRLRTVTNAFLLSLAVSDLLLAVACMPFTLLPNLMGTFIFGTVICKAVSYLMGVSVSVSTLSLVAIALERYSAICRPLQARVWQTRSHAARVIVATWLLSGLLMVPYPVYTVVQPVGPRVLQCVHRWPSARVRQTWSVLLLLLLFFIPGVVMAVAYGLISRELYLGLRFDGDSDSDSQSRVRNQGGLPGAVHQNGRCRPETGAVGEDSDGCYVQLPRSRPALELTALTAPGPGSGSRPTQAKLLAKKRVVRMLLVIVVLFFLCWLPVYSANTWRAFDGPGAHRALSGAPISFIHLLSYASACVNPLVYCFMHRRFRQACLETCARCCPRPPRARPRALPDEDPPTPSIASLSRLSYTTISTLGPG
The data set is described as follows: Calcium response (Fluo-8 No Wash Calcium Assay Kit) in GPCR-overexpressing CHO cells. Type of data set: cell-based. On the procedure: In vitro screening system, HT-267 have been tested and measured calcium response by Fluo-8 No Wash Calcium Assay Kit in GPCRs overexpressed CHO cells, including CHO-CCKBR, CHO-CCKAR, CHO-HTR2B cells. These tests and measurements are performed as described in CN 113929737 A by Tortorella, et al., assigned to Regenerative Medicine and Health Innovation Centre Co., Ltd., et al., published on Jan. 14, 2022.

Data set [3] has as its system auditory thalamocortical pathway. The data set is described as follows: Thalamocortical LTP induction by CCK injection in the auditory cortex with low-frequency stimulation of MGv (fEPSP slope). The following applies: CCK 1 μM, 1 μl into ACx, n=8, p<0.001, FIG. 3E. Type of data set: in vivo.
Where [4] appears, read: elimination half-life (t1/2) in plasma.

As usually defined, the half-life is how long it takes for the measured level to halve. High values mean slow loss, low ones fast loss. `CSCC[C@H](NC(=O)C(N)Cc1c[nH]c2ccccc12)C(=O)NC(CC(=O)O)C(=O)N[C@@H](Cc1ccccc1)C(N)=O` (some centres unmarked) [CCK-4, Cholecystokinin-4, reference compound] had a half-life in the data set “in vivo” (setting [4]) of around 13 min.
In general, EC50 refers to the midpoint of the concentration-response curve. Broadly, the Tmax is the time from dosing to the highest level. Take `CSCCC(NC(=O)[C@H](N)Cc1c[nH]c2ccccc12)C(=O)N[C@@H](CC(=O)O)C(=O)N[C@@H](Cc1cccc(Br)c1)C(N)=O` (some centres unmarked) [HT-267]: the “rescue of HFS-induced thalamocortical LTP (normalized fEPSP slope)” value in data set [1] was “abolished LTP could be rescued”. For the same molecule, in data set [2], the “change of GPIAS ratio pre- vs post-treatment” value is given as “significantly reduces”. Moreover, on CCKBR (CHO-CCKBR cells), the EC50 is around 0.05 nM. The “receptor specificity of calcium response” value on CCKBR (CHO-CCKBR vs CHO-CCKAR and CHO-HTR2B cells, FIG. 1) was “specifically activates CCKBR”. In the data set “in vivo”, the Tmax was around 1.98 min, the blood-brain barrier passage result was “passes BBB easily” and the “uptake rate of brain” value is “about 21.89%”. The molecule also gave a half-life in “in vivo” (setting [4]) of around 105 min. This molecule also had a half-life in “in vivo” (t1/2 in brain) of around 522 min.
On to cholecystokinin [CCK], for which the “normalized fEPSP slope after injection and LFS” value in data set [3] is reported as “lead to an enhancement in fEPSP”.
